Results from ChEMBL document CHEMBL1201862, “PubChem BioAssay data set” (2004).
The source made the active and inactive calls.

How the values were obtained:
[1] = Counterscreen for antagonists of the orexin 1 receptor (OX1R; HCRTR1): Fluorescence-based cell-based high throughput dose response assay to identify antagonists of the parental CHO cell line. [Related pubchem assays (depositor defined):AID434989, AID435008, AID463079, AID485270, AID492963, AID492964, AID492965, AID493232, AID504699, AID504701]; type: functional
[2] = inhibitors of HIV Env-driven cell fusion, dose response, cherry-pick (AID 652057); type: functional, cell-based
[3] = biological target: T1, Orexin receptor type 2 (Homo sapiens, UniProt O43614); assay: Counterscreen assay for antagonists of the orexin 1 receptor (OX1R; HCRTR1): Homogeneous Time Resolved Fluorescence (HTRF)-based cell-based dose response assay for antagonists of the orexin 2 receptor (OX2R; HCRTR2), run by assay provider.; type: functional
T1 sequence (O43614 whole entry): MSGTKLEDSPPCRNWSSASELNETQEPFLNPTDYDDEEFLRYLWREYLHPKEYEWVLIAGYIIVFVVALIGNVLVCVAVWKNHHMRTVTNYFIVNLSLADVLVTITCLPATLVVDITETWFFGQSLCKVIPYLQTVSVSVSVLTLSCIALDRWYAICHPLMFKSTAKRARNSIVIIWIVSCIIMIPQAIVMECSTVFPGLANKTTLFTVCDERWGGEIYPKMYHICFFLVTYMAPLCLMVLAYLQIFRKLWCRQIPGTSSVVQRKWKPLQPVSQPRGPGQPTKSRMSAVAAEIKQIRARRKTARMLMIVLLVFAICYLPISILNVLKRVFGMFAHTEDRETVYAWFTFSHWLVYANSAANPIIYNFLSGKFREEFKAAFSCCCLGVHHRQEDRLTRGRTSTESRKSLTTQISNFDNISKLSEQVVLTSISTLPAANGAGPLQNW

[4] = biological target: T1, Orexin receptor type 2; assay: Counterscreen assay for antagonists of the orexin 1 receptor (OX1R; HCRTR1): Fluorescence-based cell-based dose response assay for antagonists of the orexin 2 receptor (OX2R; HCRTR2), run by assay provider.; type: functional
[5] = inhibitors of clade B AD8 Env fusion, dose response, cell-based, cherry-pick (AID 652062); type: functional;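 further: luciferase signal from cell-cell fusion driven by HIV-1 clade B AD8 Env; potency is for inhibitors of fusion seen as a drop in luminescence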
[6] = tested on: CHO-K1; assay: Counterscreen for antagonists of the orexin 1 receptor (OX1R; HCRTR1): Homogeneous time resolved fluorescence (HTRF)-based cell-based dose response assay to identify antagonists of the parental CHO-K1 cell line. [Related pubchem assays (depositor defined):AID434989, AID435008, AID463079, AID485270, AID492963, AID492964, AID492965, AID493232, AID504699, AID504701]; type: functional; conditions: Cricetulus griseus;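 further: potency for inhibition of ATP-stimulated IP1 production as antagonists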
[7] = biological target: T2, Orexin/Hypocretin receptor type 1 (Homo sapiens, UniProt O43613); assay: Homogeneous Time Resolved Fluorescence (HTRF)-based cell-based high throughput dose response assay for antagonists of the orexin 1 receptor (OX1R; HCRTR1). [Related pubchem assays (depositor defined):AID434989, AID435008, AID463079, AID485270, AID492963, AID492964, AID492965, AID493232, AID504717, AID504718]; type: functional
T2 sequence (O43613 whole entry): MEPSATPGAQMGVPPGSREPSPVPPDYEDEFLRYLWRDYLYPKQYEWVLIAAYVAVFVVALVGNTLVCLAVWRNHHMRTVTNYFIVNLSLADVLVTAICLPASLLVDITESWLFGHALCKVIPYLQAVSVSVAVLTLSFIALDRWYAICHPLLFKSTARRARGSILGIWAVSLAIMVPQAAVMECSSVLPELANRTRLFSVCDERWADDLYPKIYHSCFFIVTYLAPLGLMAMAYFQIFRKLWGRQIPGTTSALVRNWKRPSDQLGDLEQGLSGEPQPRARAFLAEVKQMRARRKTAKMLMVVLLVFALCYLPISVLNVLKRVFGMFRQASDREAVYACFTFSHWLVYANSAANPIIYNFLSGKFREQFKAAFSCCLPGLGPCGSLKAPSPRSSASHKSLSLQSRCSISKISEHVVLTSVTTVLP

[8] = biological target: T2, Orexin/Hypocretin receptor type 1; assay: Fluorescence-based cell-based high throughput dose response assay for antagonists of the orexin 1 receptor (OX1R; HCRTR1). [Related pubchem assays (depositor defined):AID434989, AID435008, AID463079, AID485270, AID492963, AID492964, AID492965, AID493232, AID504717, AID504718]; type: functional
[9] = biological target: Mitogen-activated protein kinase 10 (Homo sapiens, UniProt P53779); assay: Dose response biochemical screening assay for inhibitors of c-Jun N-Terminal Kinase 3 (JNK3). [Related pubchem assays: 746 ]
Sequence of Mitogen-activated protein kinase 10 (P53779 whole entry): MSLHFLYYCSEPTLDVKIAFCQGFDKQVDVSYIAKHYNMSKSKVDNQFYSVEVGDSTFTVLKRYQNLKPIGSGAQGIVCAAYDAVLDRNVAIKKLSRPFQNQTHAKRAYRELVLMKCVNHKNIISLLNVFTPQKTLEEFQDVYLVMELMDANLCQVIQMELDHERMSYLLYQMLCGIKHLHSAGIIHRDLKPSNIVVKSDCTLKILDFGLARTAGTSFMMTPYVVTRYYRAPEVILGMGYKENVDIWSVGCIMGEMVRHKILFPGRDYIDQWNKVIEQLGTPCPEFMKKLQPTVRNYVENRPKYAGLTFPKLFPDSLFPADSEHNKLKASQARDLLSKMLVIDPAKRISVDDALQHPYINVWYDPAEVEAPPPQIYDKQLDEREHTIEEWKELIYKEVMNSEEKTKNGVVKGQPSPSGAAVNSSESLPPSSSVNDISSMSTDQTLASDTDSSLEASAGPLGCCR

[10] = biological target: T3, Insulin-degrading enzyme (Homo sapiens, UniProt P14735); assay: activators of recombinant IDE enzyme, dose response, counter-screen for IDE activator project, biochemical, fluorescence polarization (AID 588681)
T3 sequence (P14735 whole entry): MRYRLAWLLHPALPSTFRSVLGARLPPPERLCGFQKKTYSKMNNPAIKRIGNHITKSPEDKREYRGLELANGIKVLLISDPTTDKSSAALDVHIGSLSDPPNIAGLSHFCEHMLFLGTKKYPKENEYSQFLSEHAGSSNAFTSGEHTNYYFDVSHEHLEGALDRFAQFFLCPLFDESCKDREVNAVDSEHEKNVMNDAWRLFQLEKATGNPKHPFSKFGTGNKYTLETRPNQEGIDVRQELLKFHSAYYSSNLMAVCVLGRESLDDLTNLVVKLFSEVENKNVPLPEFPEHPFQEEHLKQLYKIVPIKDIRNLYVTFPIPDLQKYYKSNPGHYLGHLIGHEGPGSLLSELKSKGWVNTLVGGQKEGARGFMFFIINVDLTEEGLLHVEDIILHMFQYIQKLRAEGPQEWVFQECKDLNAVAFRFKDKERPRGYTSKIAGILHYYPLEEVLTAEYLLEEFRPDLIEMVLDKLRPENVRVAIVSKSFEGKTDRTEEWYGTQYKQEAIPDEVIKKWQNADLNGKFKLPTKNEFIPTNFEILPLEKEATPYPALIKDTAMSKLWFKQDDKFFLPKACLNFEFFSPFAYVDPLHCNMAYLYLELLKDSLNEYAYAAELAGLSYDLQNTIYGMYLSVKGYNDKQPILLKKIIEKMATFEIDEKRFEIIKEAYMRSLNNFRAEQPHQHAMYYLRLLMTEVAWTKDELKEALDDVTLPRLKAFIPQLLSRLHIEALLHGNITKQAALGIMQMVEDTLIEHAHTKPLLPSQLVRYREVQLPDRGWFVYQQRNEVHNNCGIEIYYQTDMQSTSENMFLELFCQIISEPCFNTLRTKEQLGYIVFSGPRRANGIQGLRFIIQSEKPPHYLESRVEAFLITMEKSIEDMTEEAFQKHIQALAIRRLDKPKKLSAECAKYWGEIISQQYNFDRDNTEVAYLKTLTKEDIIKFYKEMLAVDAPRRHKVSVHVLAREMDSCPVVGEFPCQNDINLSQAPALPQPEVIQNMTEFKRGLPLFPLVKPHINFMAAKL

[11] = biological target: T3, Insulin-degrading enzyme; assay: activators of endogenous IDE in HEK cells, dose response, cell-based, fluorescence polarization (AID 588439); type: functional
[12] = tested on: HEK293; assay: optical interference in Abeta FP readout, dose response, artefact control for IDE activator project, biochemical, fluorescence polarization (AID 588442); type: functional, cell-based; conditions: Homo sapiens
[13] = tested on: HEK293; assay: HEK cell cytotoxicity by LDH release, dose response, cytotoxicity control for IDE activator project, fluorescence, HEK cells (AID 588440); type: functional, cell-based; conditions: Homo sapiens;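 further: cytotoxicity by LDH release measuring loss of membrane integrity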
[14] = biological target: T4, Melanocortin receptor 4 (Homo sapiens, UniProt P32245); assay: MC4R antagonist potency on cAMP, dose response, cell-based, TR-FRET, biased antagonists (AID 602298); type: functional;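 further: antagonist potency against agonist-stimulated cAMP production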
T4 sequence (P32245 whole entry): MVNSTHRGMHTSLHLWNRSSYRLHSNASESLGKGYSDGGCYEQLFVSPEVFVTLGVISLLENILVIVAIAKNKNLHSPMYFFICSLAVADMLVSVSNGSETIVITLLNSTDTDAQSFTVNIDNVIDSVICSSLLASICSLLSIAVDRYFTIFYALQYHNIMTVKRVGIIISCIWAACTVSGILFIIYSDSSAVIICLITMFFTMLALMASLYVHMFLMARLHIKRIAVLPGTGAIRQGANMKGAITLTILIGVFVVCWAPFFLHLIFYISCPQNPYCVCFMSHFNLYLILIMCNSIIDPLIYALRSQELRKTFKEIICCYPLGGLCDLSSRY

[15] = nonselective inhibitors of cellular cAMP signaling, dose response, counter-screen for MC4R biased antagonist project, cell-based, TR-FRET cAMP detection (AID 602305); type: functional;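 further: U2OS cells stimulated with forskolin near its EC80 as the cAMP inducer; potency is for inhibition of forskolin-stimulated cAMP signaling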
[16] = biological target: T5, Histone-lysine N-methyltransferase NSD2 (Homo sapiens, UniProt O96028); type: biochemical
T5 sequence (O96028 whole entry): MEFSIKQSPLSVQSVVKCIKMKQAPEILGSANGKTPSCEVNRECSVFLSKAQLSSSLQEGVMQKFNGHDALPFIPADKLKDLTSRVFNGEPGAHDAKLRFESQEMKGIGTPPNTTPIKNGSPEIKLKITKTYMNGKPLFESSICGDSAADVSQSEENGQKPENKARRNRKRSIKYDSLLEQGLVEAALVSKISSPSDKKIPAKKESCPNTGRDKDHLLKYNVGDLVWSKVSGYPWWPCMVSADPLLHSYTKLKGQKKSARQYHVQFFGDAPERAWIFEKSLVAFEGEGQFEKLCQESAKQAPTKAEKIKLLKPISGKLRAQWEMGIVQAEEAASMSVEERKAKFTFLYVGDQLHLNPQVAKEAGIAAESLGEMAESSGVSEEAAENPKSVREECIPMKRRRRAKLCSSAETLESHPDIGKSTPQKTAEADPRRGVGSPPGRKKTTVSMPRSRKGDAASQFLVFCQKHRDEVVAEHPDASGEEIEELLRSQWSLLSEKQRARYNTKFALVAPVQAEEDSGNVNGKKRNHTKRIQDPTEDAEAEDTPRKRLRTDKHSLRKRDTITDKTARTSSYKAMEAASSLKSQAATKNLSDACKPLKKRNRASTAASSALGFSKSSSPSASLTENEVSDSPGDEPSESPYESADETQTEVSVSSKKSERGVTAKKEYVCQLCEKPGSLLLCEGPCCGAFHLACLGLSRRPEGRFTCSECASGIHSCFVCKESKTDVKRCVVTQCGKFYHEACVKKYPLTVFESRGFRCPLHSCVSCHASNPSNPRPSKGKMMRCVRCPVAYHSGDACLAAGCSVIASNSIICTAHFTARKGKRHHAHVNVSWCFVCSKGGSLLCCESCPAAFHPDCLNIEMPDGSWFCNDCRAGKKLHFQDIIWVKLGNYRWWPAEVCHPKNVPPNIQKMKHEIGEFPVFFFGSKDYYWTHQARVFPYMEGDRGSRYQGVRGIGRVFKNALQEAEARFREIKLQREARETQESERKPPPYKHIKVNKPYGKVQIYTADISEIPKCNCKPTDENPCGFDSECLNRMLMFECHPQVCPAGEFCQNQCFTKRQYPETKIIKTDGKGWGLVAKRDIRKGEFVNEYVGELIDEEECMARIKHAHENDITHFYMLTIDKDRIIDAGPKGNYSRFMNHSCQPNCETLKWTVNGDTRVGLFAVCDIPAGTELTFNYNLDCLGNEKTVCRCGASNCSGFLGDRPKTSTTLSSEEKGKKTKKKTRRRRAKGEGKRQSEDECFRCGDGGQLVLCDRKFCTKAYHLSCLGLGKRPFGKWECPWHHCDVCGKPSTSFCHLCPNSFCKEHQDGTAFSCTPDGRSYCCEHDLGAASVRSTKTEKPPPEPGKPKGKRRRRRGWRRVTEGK

[17] = biological target: Ras and Rab interactor 1/Tyrosine-protein kinase ABL1 (Homo sapiens, UniProt P00519+Q13671); type: functional;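 further: biochemical TR-FRET dose-response test measuring inhibition of binding between Rin1 and Abl proteins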
Sequence of Ras and Rab interactor 1/Tyrosine-protein kinase ABL1 (P00519 whole entry): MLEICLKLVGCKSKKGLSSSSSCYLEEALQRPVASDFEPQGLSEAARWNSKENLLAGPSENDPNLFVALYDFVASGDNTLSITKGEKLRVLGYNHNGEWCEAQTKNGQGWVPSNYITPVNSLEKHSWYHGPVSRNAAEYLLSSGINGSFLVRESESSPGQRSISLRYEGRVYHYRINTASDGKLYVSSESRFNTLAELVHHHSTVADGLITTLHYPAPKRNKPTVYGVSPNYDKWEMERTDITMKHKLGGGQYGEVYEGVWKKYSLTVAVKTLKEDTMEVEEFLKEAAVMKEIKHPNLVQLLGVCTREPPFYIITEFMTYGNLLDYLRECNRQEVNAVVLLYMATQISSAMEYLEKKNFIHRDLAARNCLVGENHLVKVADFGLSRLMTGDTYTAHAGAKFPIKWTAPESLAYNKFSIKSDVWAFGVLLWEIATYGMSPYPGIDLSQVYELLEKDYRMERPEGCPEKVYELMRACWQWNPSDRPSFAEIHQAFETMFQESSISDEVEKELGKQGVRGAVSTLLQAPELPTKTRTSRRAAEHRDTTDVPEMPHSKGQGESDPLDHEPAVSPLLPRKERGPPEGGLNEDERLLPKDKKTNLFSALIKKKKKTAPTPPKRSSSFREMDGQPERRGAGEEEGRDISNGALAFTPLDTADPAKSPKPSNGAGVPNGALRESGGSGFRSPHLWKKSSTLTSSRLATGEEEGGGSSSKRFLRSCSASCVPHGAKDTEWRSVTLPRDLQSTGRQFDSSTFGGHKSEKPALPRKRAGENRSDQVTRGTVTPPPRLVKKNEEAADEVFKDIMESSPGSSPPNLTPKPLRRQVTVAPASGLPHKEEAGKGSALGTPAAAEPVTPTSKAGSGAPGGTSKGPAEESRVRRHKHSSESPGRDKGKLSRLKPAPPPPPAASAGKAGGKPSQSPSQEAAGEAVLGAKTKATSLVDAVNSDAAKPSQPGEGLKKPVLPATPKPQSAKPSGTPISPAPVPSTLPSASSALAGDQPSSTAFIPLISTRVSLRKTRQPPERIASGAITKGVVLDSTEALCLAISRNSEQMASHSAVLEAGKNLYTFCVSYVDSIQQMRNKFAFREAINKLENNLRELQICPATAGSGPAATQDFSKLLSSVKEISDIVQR
Sequence of Ras and Rab interactor 1/Tyrosine-protein kinase ABL1 (Q13671 whole entry): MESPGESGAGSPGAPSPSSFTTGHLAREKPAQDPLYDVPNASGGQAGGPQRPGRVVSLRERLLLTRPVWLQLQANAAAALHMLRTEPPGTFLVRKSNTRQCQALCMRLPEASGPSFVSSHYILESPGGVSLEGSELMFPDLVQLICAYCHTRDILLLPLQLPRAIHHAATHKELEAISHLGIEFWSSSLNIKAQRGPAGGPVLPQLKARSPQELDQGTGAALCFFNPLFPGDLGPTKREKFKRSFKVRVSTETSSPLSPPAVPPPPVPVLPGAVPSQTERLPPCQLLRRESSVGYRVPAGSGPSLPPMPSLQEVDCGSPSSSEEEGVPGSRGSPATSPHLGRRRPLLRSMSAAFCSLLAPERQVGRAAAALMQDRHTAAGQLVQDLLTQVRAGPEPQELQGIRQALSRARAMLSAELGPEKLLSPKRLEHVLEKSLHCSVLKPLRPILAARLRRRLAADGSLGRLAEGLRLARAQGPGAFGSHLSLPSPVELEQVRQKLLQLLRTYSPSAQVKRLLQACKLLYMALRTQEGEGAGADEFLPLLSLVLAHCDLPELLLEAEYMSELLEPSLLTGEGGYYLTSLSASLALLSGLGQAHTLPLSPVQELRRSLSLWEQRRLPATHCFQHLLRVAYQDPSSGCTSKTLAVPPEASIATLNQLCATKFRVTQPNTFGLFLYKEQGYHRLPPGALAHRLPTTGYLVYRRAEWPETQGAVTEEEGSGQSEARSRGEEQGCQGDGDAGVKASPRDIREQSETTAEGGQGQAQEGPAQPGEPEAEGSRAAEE

[18] = biological target: T4, Melanocortin receptor 4; type: functional, cell-based

Row | SMILES | IC50 [1] | IC50 [3] | IC50 [4] | IC50 [6] | IC50 [7] | IC50 [8] | EC50 [10] | EC50 [11] | EC50 [12] | IC50 [13] | also measured
1 | O=S(=O)(NC1CC1)c1ccc(S(=O)(=O)N2CCCc3ccccc32)cc1 | 18.2 µM (inactive) | 6.62 µM (active) | > 88.8 µM (inactive) | > 66.2 µM (inactive) | 6.71 µM (active) | 6.07 µM (active) |  |  |  |  | AC50 [2]: 28.3 µM (active); AC50 [5]: 16.9 µM (active)
2 | CCn1c(C)cs/c1=N/C(=O)c1ccccc1O | > 49.8 µM (inactive) | > 50 µM (inactive) | > 88.8 µM (inactive) | > 66.3 µM (inactive) | 2.69 µM (active) | 7.37 µM (active) |  |  |  |  | IC50 [9]: 40.7 µM (not active)
3 | COc1ccccc1NS(=O)(=O)c1cccc(NC(=O)C2CC2)c1 |  |  |  |  |  |  | > 54.7 µM (inactive) | > 54.7 µM (inactive) | > 55.9 µM (inactive) | > 89.2 µM (inactive) | 
4 | O=C1OCCC1Sc1nc2cc(Cl)ccc2n1Cc1ccccc1 (stereo not given) |  |  |  |  |  |  |  |  |  |  | IC50 [14]: > 64.6 µM (inactive); IC50 [15]: > 64.6 µM (inactive)
5 | CCOC(=O)CCCCC(=O)c1[nH]c(O)nc1CSc1nc(C)cc(O)n1 |  |  |  |  |  |  |  |  |  |  | AC50 [16]: 8.18 µM (active); IC50 [17]: 0.192 µM (active)
6 | O=[N+]([O-])c1cccc(Cl)c1NCCNc1ncc(C(F)(F)F)cc1Cl |  |  |  |  |  |  | > 54.7 µM (inactive) | > 54.7 µM (inactive) | > 54.7 µM (inactive) | > 89.2 µM (inactive) | 
7 | CC(=O)N1CCC(=O)Nc2ccc([N+](=O)[O-])cc21 |  |  |  |  |  |  | > 54.7 µM (inactive) | > 54.7 µM (inactive) | > 54.7 µM (inactive) | > 89.3 µM (inactive) | 
8 | COc1cccc(OP(=O)(Nc2ccccc2)Oc2cccc(OC)c2)c1 | > 49.7 µM (inactive) | > 50 µM (inactive) | > 88.8 µM (inactive) | > 66.2 µM (inactive) | 9.26 µM (active) | 14.5 µM (inactive) |  |  |  |  | 
9 | Cc1ccccc1-c1nc(-c2ccc(NC(=O)c3ccc4c(c3)OCO4)cc2)no1 |  |  |  |  |  |  |  |  |  |  | EC50 [18]: > 89.1 µM (inactive)
10 | Cc1cc2nccc(-c3ccc(Cl)c([N+](=O)[O-])c3)n2n1 |  |  |  |  |  |  |  |  |  |  | IC50 [14]: > 64.6 µM (inactive); IC50 [15]: > 64.6 µM (inactive)
